We go through 6 molecules from patent US20120077705A1, “Methods for Identifying Autophagy Inducing Compounds” (President and Fellows of Harvard College, priority 2007, published 2012).

The subject of one data set is FYVE-RFP. As to the kind of experiment: High-content analysis of FYVE-RFP fluorescence (PI(3)P level) in H4-FYVE cell line. Format: cell-based. The text has this: Class III PI(3)K Vps34 is a multifunctional protein. On the one hand, it catalyzes the phosphorylation of PI to generate PI(3)P and is of key importance in the endocytic and autophagosome membrane transport processes. At the same time, a compound formed from Vps34/beclin1 is involved in the regulation of autophagy initiation signaling. Therefore, while the autophagy process is taking place, the level of PtdIns(3)P should not be expected to decrease to a significant extent. A FYVE domain is a protein structure domain composed of approximately 70 amino acid residues and containing a zinc finger protein structure; it can bind specifically with PI(3)P. Generally, PI(3)P recruits proteins containing a FYVE domain in order to bind to the membrane of cellular organelles, and participate in protein trafficking and similar processes.
H4 cells were transfected with the fusion protein FYVP-red fluorescent protein (FYVE-RFP). After transfection, the cells were screened in order to obtain a suitable H4-FYVE cell line to be used as a screening platform to perform high-volume screening of compounds, which thereby indirectly reflected the effect of the compound on autophagy. Compounds which reduced FYVE-RFP fluorescence intensity were eliminated. In this experiment, change in the intensity, fluorescence and distribution of the protein marker FYVE-RFP recruited by PI(3)P before and after treatment with the potential autophagy inducing compound was assayed by high-content microscopic analysis.
DMSO was used to dilute, dissolve, and prepare a compound at different concentrations with each concentration repeated three times. A 96-well plate was inoculated with H4-FYVE cells at an appropriate density and treated with the compound for 2, 4, and 8 hours, respectively. […] If a compound affected FYVE expression or distribution, then this would be embodied precisely in the image and in the size and intensity of fluorescent spots and other numerical values.

Another data set relates to long-lived proteins. As to the kind of experiment: Degradation of (3H) L-leucine labelled long-lived proteins in H4 cells. Format: cell-based. The note with it: relative to blank control. The text has this: The process of autophagy is a protein degradation process, which primarily mediates the degradation of cellular organelles and long-lived proteins within the cell. Therefore, in the present experiment the detection of whether a compound promotes the degradation of long-lived proteins within the cell was used as an additional indicator of whether the tested compound induces autophagy.
DMSO was used to dilute, dissolve, and prepare a compound at different concentrations with each concentration repeated three times. A 96-well plate was inoculated with H4 cells at an appropriate density and treated with the compound for 2, 4, and 24 hours, respectively. […] One day prior to the experiment, cells were inoculated onto a 12-well plate at an appropriate density and cultured under normal conditions (DMEM +10% fetal calf serum). […] Then, a complete medium containing (3H) L-leucine was used to incubate the cells for 24 hours causing the cells to take in isotope-labeled leucine and undertake protein synthesis. After 24 hours, a complete culture medium was substituted and used to incubate the cells for 24 hours to degrade short-lived proteins. After the short-lived proteins had been degraded, a complete culture medium to which the compound had been added was substituted and used to incubate the cells. The radiation intensity of the culture medium was tested at 0, 1, 2, 4, and 24 hours, respectively. At 24 hours, the cells were collected and the intensity of the isotope within the cells was tested, and the percent of long-lived protein degradation relative to the blank control group at different times after the action of the compound was computed. Compounds that increased the degradation of long-lived proteins were selected by means oft-test.

The next data set deals with LC3 II. In words: Western blot of LC3 II in H4-LC cells. Format: cell-based. The text has this:
The autophagosome marker LC3 used in the compound-screening platform was subjected to the foregoing processing in the cytosol. Generally when the new LC3 synthesized within the cell was processed, it became cytosolic soluble LC3 I with molecular weight 18 Kd. […] The quantity of LC3 II content reflects to a certain degree the autophagic activity of a cell. Therefore, by assaying the content of LC3 II in the cell by means of the Western blot method, it is possible to further reflect the effect of the compound on autophagy.
H4-LC cells at an appropriate density were inoculated onto a 6-well plate, which was treated with a compound for 4 hours, after which the cells were collected and lysed. The protein fraction was harvested and SDS-PAGE was performed. Following electrophoresis separation the proteins were transferred to a membrane, and immunoblot analysis was performed. The cytoskeleton protein, actin, was used as an internal control.
For orientation: In western blotting, separated proteins are transferred to a membrane and probed.

In another data set the test system is GFP-polyQ-HA. As to the kind of experiment: Degradation of expanded polyglutamine (GFP-polyQ-HA) in transfected H4 cells, anti-HA blot. Format: cell-based. The method, then: Large-scale accumulation of misfolded protein is a prominent feature of many neurodegenerative diseases. For example, the pathogenic mechanism of Huntington's disease is that a large amount of polyglutamine (polyQ) protein accumulates in the neurons and cannot be cleared away. Tests of polyQ elimination and degradation were used in this experiment to further determine the ability if the tested compounds to induce autophagy.
The compounds selected through screening were dissolved in DMSO and diluted in a stepwise manner in complete culture medium.

For the next data set, the system named is H4-LC3 cells. Format: cell-based. The source says: H4 cells were transfected with the LC3-GFP fusion protein, thereby creating, screening, and yielding an H4-LC3 cell line as a screening platform in order to perform high-content screening of 480 known bioactive compounds (ICCB known bioactive library, BIOMOL), using the following method. DMSO was used to dilute, dissolve, and prepare a compound at different concentrations with each concentration repeated three times. A 96-well plate was inoculated with H4-LC3 cells at an appropriate density and treated for 24 hours with the compound. […] If a compound affected LC3 expression or distribution, then this would be embodied precisely in the image and in the size and intensity of fluorescent spots and the like numerical values. This experiment was repeated three times, and the 72 compounds for which LC3-GFP fluorescent intensity was more than 50% greater than that of the blank control group in the three experiments were selected for analysis. Based on the number of cells determined through counting, those compounds in which cell death exceeded 30% (in comparison with the control group) were eliminated. The remaining compounds were further studied as candidate molecules.

Data set [1] deals with Ca2+-activated K+ channels. To be noted: 10-nM penitrem A; cited from earlier work.
[2] abbreviates: H4-LC cells, 4 hours, immunoblot, FIG. 1.
The mark [3] stands for this setting: H4 cells transfected with GFP-polyQ-HA, 24 hours, screening concentration and dilutions 1:2.5, 1:5, 1:10, FIG. 2.

“And” between values parts separate entries of the source, which are not always exact repeats. Equal values may be shown once. Read-outs that look alike come from different tables or passages of the source.

Consider `CCCCc1oc2ccccc2c1C(=O)c1cc(I)c(OCCN(CC)CC)c(I)c1.Cl` [Amiodarone], for which the “Relative fluorescent intensity of FYVE-RFP (%)” value in the data set on FYVE-RFP was 92.50 ± 5.51% and 89.23 ± 3.47% and 83.45 ± 3.64%. Also, the “Percent relative degradation of long-lived proteins (%)” value (from here on “Percent relative degradation … (%)”) in the data set on long-lived proteins (1 h) is listed as 101.32 ± 5.95%; in the data set on long-lived proteins (2 h), 122.42 ± 9.71%; in the data set on long-lived proteins (4 h) it was 110.75 ± 3.68%; with long-lived proteins (24 h), 116.73 ± 5.54%. For the same molecule, in the data set on LC3 II (setting [2]), the “Increase of endogenous LC3 II / LC3 II/LC3 I percentage” value is “increase of endogenous LC3 II”. In addition, the polyQ degradation entry with GFP-polyQ-HA is listed as “increased polyQ degradation”.

As to `COC(=O)C1=C(C)NC(C)=C(C(=O)OCCN(C)Cc2ccccc2)C1c1cccc([N+](=O)[O-])c1.Cl` (centres unmarked) [Nicardipine], the “Relative fluorescent intensity of FYVE-RFP (%)” value in the data set on FYVE-RFP (H4-FYVE cells, 2 h) came out at 132.05 ± 19.93%; in the data set on FYVE-RFP (H4-FYVE cells, 4 h), 112.51 ± 10.09%; in the data set with FYVE-RFP (H4-FYVE cells, 8 h) it was 104.77 ± 31.63%. In addition, the “Percent relative degradation … (%)” value in the data set on long-lived proteins (1 h) was determined as 84.62 ± 4.48%; in the data set on long-lived proteins (2 h) it was 126.59 ± 3.83%; in the data set with long-lived proteins (4 h) it was 122.60 ± 7.70%; with long-lived proteins (24 h), 121.03 ± 13.43%. Also, in the data set with LC3 II (setting [2]), the “Increase of endogenous LC3 II / LC3 II/LC3 I percentage” value was “increase of endogenous LC3 II”. The polyQ degradation entry with GFP-polyQ-HA (setting [3]) was “increased polyQ degradation”.

As to `COC(=O)C1=C(C)NC(C)=C(C(=O)OCCCN2CCC(c3ccccc3)(c3ccccc3)CC2)C1c1cccc([N+](=O)[O-])c1.Cl` (centres unmarked) [Niguldipine], in the data set on H4-LC3 cells (human), the “Relative quantity of cells (%)” value came out at 132.78 ± 18.11%. The “Relative fluorescent intensity of FYVE-RFP (%)” value with FYVE-RFP was 147.18 ± 25.39% and 148.26 ± 3.67% and 125.53 ± 2.84%. In addition, the “Percent relative degradation … (%)” value in the data set on long-lived proteins (1 h) was 71.65 ± 2.68%; in the data set on long-lived proteins (2 h) it was 107.42 ± 2.72%; with long-lived proteins (4 h) it was 105.68 ± 2.74%; with long-lived proteins (24 h), 117.85 ± 1.98%. In the data set with LC3 II, the “Increase of endogenous LC3 II / LC3 II/LC3 I percentage” value is reported as “increase of endogenous LC3 II”. Besides, the polyQ degradation entry in the data set on GFP-polyQ-HA is reported as “increased polyQ degradation”.

With `C=C(C)[C@H]1O[C@H]2CC[C@@]3(C)[C@@](O)(CC[C@H]4[C@@H]5OC(C)(C)[C@H]6C[C@@H]7C(=C)Cc8c(Cl)cc9[nH]c(c5c9c8[C@@]76O)[C@@]43C)[C@]23O[C@@H]3[C@H]1O` [Penitrem A], in the data set on H4-LC3 cells (H4 cells), the “Destruction of H4 cells” value is “does not destroy H4 cells”. Besides, the “Relative fluorescent intensity of FYVE-RFP (%)” value was 121.40 ± 12.66% in the data set on FYVE-RFP (H4-FYVE cells, 2 h); 87.41 ± 5.90% with FYVE-RFP (H4-FYVE cells, 4 h); 72.71 ± 5.57% in the data set with FYVE-RFP (H4-FYVE cells, 8 h). The “Percent relative degradation … (%)” value in the data set on long-lived proteins (1 h) is listed as 92.88 ± 2.83%; in the data set with long-lived proteins (2 h), 126.09 ± 0.47%; in the data set with long-lived proteins (4 h), 132.13 ± 10.01%; in the data set on long-lived proteins (24 h), 141.83 ± 1.25%. Moreover, the “Increase of endogenous LC3 II / LC3 II/LC3 I percentage” value in the data set with LC3 II (setting [2]) is given as “increase of endogenous LC3 II”. For the same molecule, the polyQ degradation result in the data set with GFP-polyQ-HA (setting [3]) is listed as “increased polyQ degradation”. Moreover, the “Blockage of Ca2+-activated K+ channels” value in data set [1] is given as 100%.

On to `O=c1[nH]c2ccccc2n1C1CCN(CCCC(c2ccc(F)cc2)c2ccc(F)cc2)CC1` [Pimozide], for which the “Relative fluorescent intensity of FYVE-RFP (%)” value worked out at 94.42 ± 4.71% in the data set on FYVE-RFP (H4-FYVE cells, 2 h); 103.96 ± 9.06% in the data set with FYVE-RFP (H4-FYVE cells, 4 h); 73.64 ± 12.18% in the data set with FYVE-RFP (H4-FYVE cells, 8 h). The “Percent relative degradation … (%)” value in the data set on long-lived proteins (1 h) was 129.13 ± 11.46%; in the data set on long-lived proteins (2 h), 155.80 ± 9.22%; with long-lived proteins (4 h), 152.01 ± 9.63%; in the data set with long-lived proteins (24 h), 162.47 ± 3.50%. The “Increase of endogenous LC3 II / LC3 II/LC3 I percentage” value with LC3 II (setting [2]) is “increase of endogenous LC3 II”. Moreover, in the data set with GFP-polyQ-HA (setting [3]), the polyQ degradation entry was “increased polyQ degradation”.

As to `CN1CCN(CCCN2c3ccccc3Sc3ccc(C(F)(F)F)cc32)CC1` [Trifluoperazine], the “Relative fluorescent intensity of FYVE-RFP (%)” value amounted to 136.58 ± 15.74% with FYVE-RFP (H4-FYVE cells, 2 h); 111.52 ± 13.45% in the data set with FYVE-RFP (H4-FYVE cells, 4 h); 94.28 ± 2.87% with FYVE-RFP (H4-FYVE cells, 8 h). In addition, the “Percent relative degradation … (%)” value was 76.62 ± 2.32% in the data set with long-lived proteins (1 h), 105.60 ± 5.01% in the data set with long-lived proteins (2 h), 109.00 ± 5.22% in the data set with long-lived proteins (4 h) and 124.78 ± 2.05% with long-lived proteins (24 h). The “Increase of endogenous LC3 II / LC3 II/LC3 I percentage” value in the data set on LC3 II (setting [2]) is on record as “increase of endogenous LC3 II”. Also, the polyQ degradation result with GFP-polyQ-HA (setting [3]) was “increased polyQ degradation”.
